From patent US9416182B2, “Anti-TNF-anti-IL-17 bispecific antibodies” (Eli Lilly and Company, priority 2013, dated 2016)
Each block holds one compound with its values, some of them ahead of it.

Experiments:
[1] = tested on: membrane bound human TNFα; assay: Inhibition of membrane bound human TNFα induced cytotoxicity in L929 cells; format: cell-based; conditions: average of 3 independent experiments+/−SEM; read-out: IC50, killing of L929 cells by human non-cleavable membrane bound TNFα CHO cells
Experimental: The non-cleavable TNFα construct is stably transfected to Chinese hamster ovary (CHO) cells. These cells express membrane bound TNFα as shown by flow cytometry. Incubation of L929 cells with CHO cells expressing human non-cleavable membrane bound TNFα results in rapid L929 cell death.
CHO cells expressing membrane bound human TNFα are routinely maintained in selection medium (AM2001 media, an internal CHO growth media without MSX, 8 mM glutamine, GS supplement, HT supplement with 500 μg/mL G418). On the day of the assay, the cells are counted, rinsed with 1×PBS (no Ca^++ or Mg^++), centrifuged at 215×g for 5 mM and re-suspended at 50,000 cells/mL in L929 assay medium together with Actinomycin-D (6.25 μg/mL). 500 cells (in 10 μL) of cell suspension are added to each concentration of antibody mixtures that were incubated for 60 minutes at 37° C., 95% relative humidity, 5% CO2. […] The cell death is measured using an MTT cytotoxicity assay as described above for soluble TNFα L929 assay.

human TNFα = human TNFα (Homo sapiens, UniProt P01375); assay: Inhibition of human TNFα-induced production of CXCL1 in vivo; design: species or system mouse; conditions: C57BI/6J mice; 16.7 nmol/kg subcutaneously; TNFα challenge two days later; plasma two hours after challenge
Experimental: Two days later, mice receive a single intraperitoneal injection of human IL-17 (3 μg/mouse) or human TNFα (1 μg/mouse). Two hours after cytokine challenge, the mice are sacrificed and plasma is analyzed for CXCL1 using a commercial ELISA.

[2] = tested on: human skin grafts on immunodeficient mice; assay: Humanized psoriasis mouse model (human skin grafts, PBMC injection); format: in vivo; conditions: twice daily topical; after three weeks
From the text: A humanized mouse model of psoriasis is a model that involves grafting of human non-lesional skin biopsies from psoriasis patients onto the back skin of immunodeficient mice. After the human skin has grafted (3 to 4 weeks later), T-cell activated human peripheral blood mononuclear cells (PBMCs) from the same donor are intradermally injected into the graft to induce psoriasis-like epidermal thickening (Wrone-Smith and Nickoloff J., Clin Invest. 15; 98(8):1878-87 (1996)).
After three weeks the mice are euthanized, the grafted skin was isolated, and the thickness of the epidermis is measured.

[3] = tested on: human TNFα and human IL-17; assay: Inhibition of CXCL1 production from HT-29 cells induced by combination of IL-17 and TNF; format: cell-based; conditions: antibodies at fixed dose of 4 nM, 3 pM TNFα and 200 pM IL-17
Experimental: As described above, HT-29 cells are human colorectal adenocarcinoma epithelial cells that naturally express the IL-17 and TNF receptors. Incubation of HT-29 cells with human TNFα and human IL-17 results in the production of CXCL1, which can be measured using a commercially available ELISA.
Testing is carried out in five replicate wells per treatment. Assay medium is used for “medium alone” and “IL-17+TNF alone”. Anti-IL-17 antibody (U.S. Pat. No. 7,838,638); anti-TNFα antibody (adalimumab); and combination of anti-IL-17 antibody/anti-TNF antibody are used as controls in the assay. Control antibodies are tested at the same molar range as the bispecific antibody. […]
HT-29 cells are routinely cultured in assay medium [McCoy's 5A containing 10% FBS, penicillinG (0.2 U/mL) and streptomycin (0.2 mcg/mL)]. […] Cell density is measured with Invitrogen Countess, and 20,000 HT-29 cells (in 100 μL) are added to each of the 96-well plates. […]
At the end of the assay, the plates are centrifuged (500×g for 5 minutes at room temperature), and the cell culture medium is transferred to polypropylene 96-well plates, which are sealed and frozen at −80° C. […] CXCL1 levels in medium are measured with a CXCL1 sandwich ELISA (R&D Systems DuoSet #DY275), as per the manufacturer's instructions. At the end of the ELISA reactions, plates are read at 450 nm on a microplate reader (Molecular Devices VersaMax Tunable).

Chain of human TNFα (P01375 77-233 limits assumed): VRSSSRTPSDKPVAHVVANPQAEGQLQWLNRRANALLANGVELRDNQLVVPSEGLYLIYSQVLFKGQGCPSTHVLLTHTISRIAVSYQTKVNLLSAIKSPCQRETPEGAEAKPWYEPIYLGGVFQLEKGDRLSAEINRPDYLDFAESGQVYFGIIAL
Chain of membrane bound human TNFα (P01375 89-233 limits assumed): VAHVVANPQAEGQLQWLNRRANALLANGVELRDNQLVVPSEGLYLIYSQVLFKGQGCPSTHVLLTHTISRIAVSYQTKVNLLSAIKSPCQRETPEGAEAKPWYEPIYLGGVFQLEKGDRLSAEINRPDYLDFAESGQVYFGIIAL

Average % inhibition of human TNFα-induced CXCL1 production in vivo (human TNFα): 89.4 ± 2%
Compound: adalimumab with IgG4 isotype: TNFα neutralizing antibody (adalimumab with IgG4 isotype), positive control in L929 assays and in vivo CXCL1 (Table 2)
IC50 [1]: 0.669 nM

Compound: C[C@H]1C[C@H]2[C@@H]3CCC4=CC(=O)C=C[C@]4(C)[C@@]3(F)[C@@H](O)C[C@]2(C)[C@@]1(O)C(=O)CO [Betamethasone, betamethasone]
Mean Epidermal Thickness [2]: 74.9 μm

Compound: adalimumab [anti-TNFα]
percent human CXCL1 left after incubation (TNF+IL-17 alone being 100%) [3]: 8.97+/−2.65%
